Reference: US6867179B1, “Methods of inducing hair growth and coloration” (Trustees of Boston University, priority 1994, dated 2005)
No end group written: not given here.

Assays:
[1] = test system: p75^NTR-NIH 3T3 cells; experiment: Effect of KGA-containing peptides on survival of beta-amyloid treated p75NTR-NIH 3T3 cells; format: cell-based; conditions: 250 nM peptide, 250 nM preaggregated beta-amyloid 1-40, 72 hours
Method: p75^NTR-NIH 3T3 cells were maintained in DME supplemented with 10% calf serum until 80% confluent. The cells were washed and incubated in serum free DME containing transferrin (5 microg/ml) and insulin (5 microg/ml). Triplicate dishes were supplemented with diluent or preaggregated beta-amyloid 1-40 (250 nM) as […]. […] After 72 hours, cells were rinsed in PBS and cultures were incubated in 0.25% trypsin at 37° C. Cell yields were determine using a particle counter.

[2] = target: human p75 nerve growth factor receptor (human) (UniProt P08138); experiment: cell-based or functional assay
[3] = target: p75^NTR over expressed on permanently transfected NIH 3T3 fibroblasts (p75^NTR NIH 3T3 cells); experiment: cell-based or functional assay
[4] = test system: MM4 cells; experiment: MM4 cell yields after UV or sham irradiation with growth factor supplementation; format: cell-based, human
Method: Melanocytes or MM4 cells were plated in 60 mm diameter tissue culture dishes. Melanocytes were maintained in Medium 199 supplemented with 7% fetal bovine serum (FBS), 10 ng/ml epidermal growth factor (Collaborative Research), […] (Sigma), […] (Collaborative Research), […] (Sigma), 1.4×10^−6 M hydrocortisone (Calbiochem), […] (Calbiochem), and 10 ng/ml basic fibroblast growth factor (Collaborative Research) (basal melanocyte medium). MM4 cells were maintained in 55.3% DME, 27.6% L15, 15% FBS, 1% nonessential amino acids (GIBCO BRL), 2 mM glutamine and 10 µg/ml insulin. After 24 hours, medium was replaced by phosphate buffered saline (PBS) and cells were irradiated using a 1 KW xenon arc solar simulator (XMN 1000-21, Optical Radiation Corp., Azuza, Calif.) with 5, 10, or 25 mJ/cm^2 UV through the petri dish plastic cover. Irradiance was adjusted to 4×10^−5 UV cm^−2 and metered with a research radiometer (model IL1700A, International Light, Newburyport, Mass.) fitted with a UVB probe at 285 Å 5 nm. After UV irradiation, cells were maintained in their respective media without FBS for 2 days (MM4 cells) or 3 days (melanocytes) and processed as indicated. Sham irradiated control cultures were handled identically but laced under a dark cloth adjacent to the UV beam.
FIGS. 2B and 2D show MM4 cell yields 24-72 hours after a single UV irradiation of 10 mJ/cm^2. FIGS. 2C and 2e show MM4 cell yields 24-72 hours after sham irradiation. Cells in FIGS. 2B and 2C were supplemented with 50 ng/ml NGF or diluent alone. Cells in FIGS. 2D and 2E were supplemented with 50 ng/ml bFGF or diluent alone.
Melanocytes or MM4 cells were plated as described in Example 1. After irradiation, melanocytes were maintained in basal melanocyte medium lacking FBS and hydrocortisone, with 50 ng/ml NGF or diluent alone (melanocyte medium). MM4 cells were maintained in DME supplemented with 50 ng/ml NGF or diluent alone.

[5] = test system: p75 NGF-R; experiment: p75 NGF-R antisense oligonucleotides in UV-irradiated, NGF-supplemented melanocytes; format: cell-based, human; conditions: UV 20 mJ/cm^2, 10 uM oligonucleotide, 48 hours
Method: The following sequences were used: Antisense 5' to 3' […] NO: 5); Nonsense 5' to 3° […] NO: 6) (negative control). […] Near confluent cells were irradiated using a 1 KW xenon arc solar simulator (XMN 1000-21, Optical Radiation Corp., Azuza, Calif.) with 20 mJ/cm^2 UV through the petri dish plastic cover. Irradiance was adjusted to 4×10^-5 UV cm^-2 and metered with a research 20 radiometer (model I[…], International Light, Newburyport, Mass.) fitted with a UVB probe at 285 Å 5 nm. […] After the initial 30 minute incubation cells were plated in 35 mm dishes in basal melanocyte medium without serum. Cells were supplemented with fresh oligonucleotides every 12 hours for 48 hours. Cells were visualized by phase contrast microscopy and pictures of representative fields were obtained. Cell yields were determined by counting cells in several representative fields.

[6] = target: p75^NTR over expressed on permanently transfected NIH 3T3 fibroblasts (p75^NTR NIH 3T3 cells); experiment: competition with 125I beta-amyloid 1-40 on p75^NTR-NIH 3T3 cells, NGF 0-100 ng/ml, counting of lysates
[7] = test system: Bax; experiment: Bax level in beta-amyloid treated melanocytes (Western blot); format: cell-based, human
Method: To investigate the mechanism of -amyloid-mediated melanocyte death, Bax levels in melanocytes treated with 25 uM of 1-40 or 25-35-amyloid peptides was examined. Within 4 days of treatment, Bax was induced 3 fold in melanocytes stimulated either with the beta-amyloid 1-40 or 25-35 fragments as compared to melanocytes treated with the 40-1 control fragment or an irrelevant HPLC purified protein of similar size.
Melanocytes were maintained as above. Four days after addition of 25 microM of beta-amyloid fragments 1-40 40-1 or 25-35; or 25 microM of HPLC-purified bovine corticotropin releasing factor (CRF) (Bachem Calif.) (MW 4.7 kD) as an additional negative control, cells were extracted in RIPA buffer (50 mM Tris-HCl [pH 8.0], 0.15 M NaCl, 0.5% sodium deoxycholate, 1% Triton X-100) in the presence of 1 microg/ml aprotinin and 75 microg/ml phenylmethylsulfonyl fluoride (PMSF), sonicated for 1-3 seconds and centrifuged. 40 microg of protein per lane were separated on 12% SDS/PAGE and blotted onto nitrocellulose paper (overnight, 25C). To verify equal loading a duplicate 13% SDS/PAGE was performed and stained with Coomasie Blue R250 stain. […] Bound antibodies were detected using enhanced chemiluminescence kit (Amersham Corp.). […]

[8] = test system: human p75; experiment: p75 apoptotic signaling in 3T3-p75 cells (aggregation, c-jun, JNK, caspase-3, DNA fragmentation); format: cell-based; conditions: peptide pretreatment, then βA
Method: To investigate p75 early signaling, NIH-3T3 cells engineered to constitutively express human p75 (3T3-p75), were stimulated with a known p75 ligand β amyloid (βA), and the distribution of p75 on the cell surface was analysed using immunohistochemistry and confocal laser microscopy. […] (FIG. 13)
To determine if the initial step of p75 aggregation is required for initiation of apoptosis, 3T3-p75 were pretreated with an HPLC purified cyclic peptide (CATDIKGAEC) (SEQ ID NO:9) that binds the ligand binding site of p75, and then cultures were stimulated with βA or with diluent alone.

[9] = test system: p75; experiment: p75 signal transduction in melanocytes (JNK activation, intracellular ceramide); format: cell-based, human
Method: To investigate p75 signal transduction, it was first determined by RT-PCR that trkA and trkC are not expressed in MC maintained in choleragen/TPA-free medium. MC were incubated with 10 ng/ml nerve growth factor (NGF) or neurotrophin-3 (NT-3) for 30 minutes and c-Jun amino terminal kinase (JNK) activation was determined. […] Furthermore, within 3 hours p75 activation by NGF, but not by NT-3, lead to a 2-fold increase of intracellular ceramide. As before, ceramide increase was abrogated by pre-incubation with the cyclic peptide. Because in cell lines, UV irradiation directly activates cell surface receptors such as Fas and the TNFα receptor, sham- or UV-irradiated MC were used to determine p75 activation.

[10] = test system: BCL-2; experiment: BCL-2 antisense oligonucleotides in UV-irradiated MM4 cells with or without NGF; format: cell-based, human
Excerpt: Purified phosphorothioate oligonucleotides were purchased from Quality Controlled Biochemicals, Inc. (Hopkinton, Mass.). 19 mer oligonucleotides were designed based on the published human BCL-2 sequence (Tsujimoto, Y. and Croce, C. M., Proc. Natl. Acad. Sci. USA, 83:5214-5218 (1986)). The sequence chosen was directed against the […] of the coding region starting 4 bases before the methionine initiation site. Nonsense oligonucleotides were used as control. Sequences used (all written 5′ to 3′): Antisense CCCAGCGTGCGCCATCCTT (SEQ ID NO: 7); Nonsense CTCCCACTCGTCATTCGAC (SEQ ID NO: 8).
MM4 cells were maintained in 60 mm diameter tissue culture dishes in 55.3% DME, 27.6% L15, 15% FBS, 1% nonessential amino acids (GIBCO BRL), 2 mM glutamine and 10 µg/ml insulin. Near confluent cells were UV irradiated with 10 mJ/cm^2. Immediately after irradiation cells were incubated with 10 uM antisense or nonsense BCL-2 oligonucleotides in suspension at […] for 30 minutes. Then cells were plated in tissue culture dishes in the presence or absence of NGF (50 ng/ml). Cells were supplemented with fresh oligonucleotides every 12 hours. Cell yield and BCL-2 level were determined 48 hours after irradiation. Cell yield was determined by counting cells in at least three representative field per each condition.

[11] = target: p75^NTR over expressed on permanently transfected NIH 3T3 fibroblasts (p75^NTR NIH 3T3 cells); experiment: competition with 125I beta-amyloid 1-40 on p75^NTR-NIH-3T3 cells in suspension, 4 hours, counting of lysates
[12] = target: the molecule itself; experiment: cross-linking of 3T3-p75 cells stimulated with βA, western blot with anti p75 antibodies
[13] = pre-incubation with cyclic peptide

CKGAIC (also: cyclic, ring type not given here) [cyclic KGA-containing hexapeptide]
Cell yields, cyclic peptide and beta-amyloid versus beta-amyloid alone [1]: significantly higher

beta-amyloid 1-40 peptide (from UniProt P05067 1-40)
melanocyte cell yield (% decrease in cell yield) [2]: 59 | cell yield (% reduction of cell yield) [3]: 60

bFGF: basic fibroblast growth factor, a major mitogen for cells of melanocytic origin
MM4 cell survival after UV irradiation ([4]; UV 10 mJ/cm^2, 50 ng/ml bFGF): failed to improve MM4 cell survival | Effect on sham irradiated MM4 cells ([4]; sham irradiation, 50 ng/ml bFGF): mitogenic effect

GGCACCTGCCCCCATCGCC (DNA, all phosphorothioate, methylation of C not given here; listed as Homo sapiens) [antisense NGF-R, 19 mer antisense against the 5′ end of the human p75 NGF-R coding region]
NGF effect on melanocyte survival [5]: NGF does not have an effect on melanocyte survival

nerve growth factor (ligand)
intracellular ceramide (fold increase) [2]: 2 | maximum inhibition of ^125I beta-amyloid binding [6]: 38 % inhibition

25-35: beta-amyloid fragment 25-35 (GSNKGAIIGLM; Amyloid-beta protein 42; UniProt P05067 696-706, looked up, fragment)
Bax induction versus 40-1 control fragment or irrelevant protein ([7]; 25 uM, within 4 days): 3 fold | Bax level as compared to the 40-1 peptide ([7]; 25 microM, four days): 160%

CATDIKGAEC (also: cyclic, ring type not given here)
Cell yields, cyclic peptide and beta-amyloid versus beta-amyloid alone [1]: significantly higher | c-jun transcription [8]: decreased c-jun transcription | p75 aggregation [8]: inhibited p75 aggregation | JNK activation in NGF stimulated cells [9, 13]: abrogated JNK activation | NGF-induced ceramide increase [9, 13]: abrogated

CCCAGCGTGCGCCATCCTT (DNA, all phosphorothioate, methylation of C not given here; listed as Homo sapiens) [BCL-2 antisense oligonucleotides]
BCL-2 levels (Western blot) ([10]; 10 uM antisense, 48 hours after UV 10 mJ/cm^2): almost undetectable | Cell yields, NGF plus BCL-2 antisense versus NGF plus nonsense ([10]; UV 10 mJ/cm^2, 10 uM oligonucleotide, NGF 50 ng/ml, 48 hours): significantly lower

B1: NT-3: neurotrophin-3 (protein, UniProt P20783 139-257, looked up)
Neurotrophin-3: YAEHKSHRGEYSVCDSESLWVTDKSSAIDIRGHQVTVLGEIKTGNSPVKQYFYETRCKEARPVKNGCRGIDDKHWNSQCKTSQTYVRALTSENNKLVGWRWIRIDTSCVCALSRKIGRT
UV-induced JNK activation ([9]; NT-3 pre-treatment, within 30 minutes of UV): partially decreased | Increase of intracellular ceramide ([9]; within 3 hours): not by NT-3

CVGSNKGAIC (not fully specified (bridges); also: cyclic peptide, ring type not given here) [cyclic peptide … (SEQ ID NO: 4)]
IC50 [11]: 25 nM

B2: human p75 nerve growth factor receptor (receptor, UniProt P08138 29-427, looked up)
chain: KEACPTGLYTHSGECCKACNLGEGVAQPCGANQTVCEPCLDSVTFSDVVSATEPCKPCTECVGLQSMSAPCVEADDAVCRCAYGYYQDETTGRCEACRVCEAGSGLVFSCQDKQNTVCEECPDGTYSDEANHVDPCLPCTVCEDTERQLRECTRWADAECEEIPGRWITRSTPPEGSDSTAPSTQEPEAPPEQDLIASTVAGVVTTVMGSSQPVVTRGTTDNLIPVYCSILAAVVVGLVAYIAFKRWNSCKQNKQGANSRPVNQTPPPEGEKLHSDSGISVDSQSLHDQQPHTQTASGQALKGDGGLYSSLPPAKREEVEKLLNGSAGDTWRHLAGELGYQPEHIDSFTHEACPVRALLASWATQDSATLDALLAALRRIQRADLVESLCSESTATSPV
notes: whole, on cells; also called p75 NGF-R; p75^NTR
binding result [12]: binds
